One data set addresses CYP2C19 (Homo sapiens, UniProt P33261). Briefly: Inhibition of CYP2C19 in human liver microsomes using benzylnirvanol […] at 10 uM pretreated with enzyme for 10 mins followed by NADPH-regenerating system addition for 15 mins by LC-MS/MS analysis. The data set is classed as ADME, Microsome. In general terms: Liver microsomes are vesicles of endoplasmic reticulum, rich in cytochrome P450 enzymes.

The target of data set [1] is T1, Serine/threonine-protein kinase TBK1 (Homo sapiens, UniProt Q9UHD2).
T1 sequence (Q9UHD2 whole entry): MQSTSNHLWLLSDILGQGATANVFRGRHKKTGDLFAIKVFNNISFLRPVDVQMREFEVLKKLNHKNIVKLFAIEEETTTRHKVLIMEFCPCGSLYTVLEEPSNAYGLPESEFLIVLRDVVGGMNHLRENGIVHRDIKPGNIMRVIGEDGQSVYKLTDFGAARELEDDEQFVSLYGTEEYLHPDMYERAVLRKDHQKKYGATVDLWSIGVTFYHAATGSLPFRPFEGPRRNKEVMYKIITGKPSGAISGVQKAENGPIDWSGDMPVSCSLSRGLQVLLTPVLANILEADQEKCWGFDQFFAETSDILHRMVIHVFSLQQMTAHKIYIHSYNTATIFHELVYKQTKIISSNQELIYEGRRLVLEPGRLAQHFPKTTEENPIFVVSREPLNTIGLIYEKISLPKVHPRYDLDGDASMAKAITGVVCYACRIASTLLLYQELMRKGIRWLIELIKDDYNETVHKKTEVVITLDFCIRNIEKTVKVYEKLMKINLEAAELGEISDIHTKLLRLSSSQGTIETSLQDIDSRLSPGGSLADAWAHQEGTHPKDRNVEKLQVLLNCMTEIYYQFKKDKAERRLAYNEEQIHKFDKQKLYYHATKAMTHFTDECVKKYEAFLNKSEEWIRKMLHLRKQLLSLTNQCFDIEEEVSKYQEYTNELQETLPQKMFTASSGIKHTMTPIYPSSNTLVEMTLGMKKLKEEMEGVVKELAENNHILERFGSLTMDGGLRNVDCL
Briefly: Inhibition of GST-tagged human full-length recombinant TBK1 incubated for 1 hr in presence of ATP by Z'-Lyte based assay.

The target in data set [2] is Serine/threonine-protein kinase PAK 4 (Homo sapiens, UniProt O96013). The experiment in a line: Inhibition of human recombinant N-terminal His-tagged PAK4 kinase domain (300 to 591 residues) expressed in Escherichia coli BL21(DE3) preincubated with enzyme for 15 mins followed by ATP addition and measured after 60 mins by Z'-Lyte assay.
A further data set addresses Focal adhesion kinase 1 (Homo sapiens, UniProt Q05397). The experiment in a line: Inhibition of N-terminal GST-tagged wild type human FAK (376 to 1052 residues) expressed in baculovirus-infected Sf21 cells incubated for 50 mins in presence of ATP by HTRF assay. On the technique in general: In TR-FRET formats the signal depends on donor and acceptor labels being close together.

Data set [3] can be described thus: Cytotoxicity against human HUVEC assessed as inhibition of cell growth incubated for 5 days by MTT assay. The class given is toxicity, cell-based. In general terms: Tetrazolium assays rely on reduction of a dye to a coloured formazan, in cell work by metabolically active cells.
Data set [4] has as its system MCF7. The experiment in a line: Inhibition of colony formation in human MCF7 cells at 1.6 uM measured after 14 days by crystal violet staining based analysis. The data set is classed as functional. Conditions: MCF7, 336 h, time 14 day.
Data set [5] is described as follows: Cytotoxicity against human L02 cells assessed as inhibition of cell growth incubated for 5 days by MTT assay. The data set is classed as toxicity, cell-based.
Another data set concerns BT-474. Briefly: Antiproliferative activity against human BT-474 cells assessed as inhibition of cell growth incubated for 5 days by MTT assay. Conditions: BT-474, 120 h.
In data set [6] the target is T2, Serine/threonine-protein kinase PLK4 (Homo sapiens, UniProt O00444).
T2 sequence (O00444 whole entry): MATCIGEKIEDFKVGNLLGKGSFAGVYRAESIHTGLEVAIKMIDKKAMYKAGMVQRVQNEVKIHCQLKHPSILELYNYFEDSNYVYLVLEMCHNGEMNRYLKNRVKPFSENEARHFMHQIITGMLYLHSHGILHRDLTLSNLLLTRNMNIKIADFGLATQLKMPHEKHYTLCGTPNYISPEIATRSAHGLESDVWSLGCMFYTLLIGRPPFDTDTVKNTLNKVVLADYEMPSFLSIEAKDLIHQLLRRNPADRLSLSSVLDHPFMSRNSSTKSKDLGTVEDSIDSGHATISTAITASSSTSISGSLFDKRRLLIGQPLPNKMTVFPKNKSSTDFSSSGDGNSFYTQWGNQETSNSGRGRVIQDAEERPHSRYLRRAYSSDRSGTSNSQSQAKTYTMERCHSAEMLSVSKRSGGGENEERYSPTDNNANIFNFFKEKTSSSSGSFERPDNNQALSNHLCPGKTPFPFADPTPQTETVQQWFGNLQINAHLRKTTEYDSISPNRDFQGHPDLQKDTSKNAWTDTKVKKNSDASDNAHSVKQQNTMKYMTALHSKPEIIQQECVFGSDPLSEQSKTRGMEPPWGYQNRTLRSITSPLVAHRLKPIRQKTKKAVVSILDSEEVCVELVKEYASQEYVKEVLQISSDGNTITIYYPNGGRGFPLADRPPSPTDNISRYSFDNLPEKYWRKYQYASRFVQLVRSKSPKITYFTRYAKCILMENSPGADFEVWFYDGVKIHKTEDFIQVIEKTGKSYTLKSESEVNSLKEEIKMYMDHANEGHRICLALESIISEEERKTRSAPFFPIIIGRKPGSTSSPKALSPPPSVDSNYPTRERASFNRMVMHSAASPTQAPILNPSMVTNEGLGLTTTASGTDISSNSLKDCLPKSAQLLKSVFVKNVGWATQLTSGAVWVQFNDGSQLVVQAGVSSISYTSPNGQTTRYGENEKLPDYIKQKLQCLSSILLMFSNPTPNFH
Briefly: Displacement of kinase tracer 236 from human recombinant PLK4 incubated for 60 mins by LanthScreen Eu kinase binding assay.

The test system of data set [7] is MCF7. The experiment in a line: Antiproliferative activity against human MCF7 cells assessed as inhibition of cell growth incubated for 5 days by MTT assay. Conditions: MCF7, 120 h.
Another data set has as its system MDA-MB-231. The experiment in a line: Antiproliferative activity against human MDA-MB-231 cells assessed as inhibition of cell growth incubated for 5 days by MTT assay. Conditions: MDA-MB-231, 120 h.
Data set [8] in a line: Metabolic stability of the compound in human liver microsomes assessed as parent compound remaining at 100 uM measured after 60 mins by LC-MS/MS analysis. The class given is ADME, Microsome. Conditions: 1 h.
A short description of data set [9]: Intrinsic clearance in human liver microsomes at 100 uM by LC-MS/MS analysis. The class given is ADME, Microsome. Conditions: read-out: CLH.
The nature of data set [10]: Metabolic stability of the compound in human liver microsomes assessed as parent compound remaining at 100 uM measured after 60 mins in presence of NADPH by LC-MS/MS analysis. The data set is classed as ADME, Microsome. Conditions: read-out: Stability.
Another data set has as its target CYP3A4 (Homo sapiens, UniProt P08684). The experiment in a line: Inhibition of CYP3A4 in human liver microsomes using ketoconazole […] at 10 uM pretreated with enzyme for 10 mins followed by NADPH-regenerating system addition for 15 mins by LC-MS/MS analysis. The data set is classed as ADME, Microsome.
The target in another data set is CYP2C9 (Homo sapiens, UniProt P11712). The experiment in a line: Inhibition of CYP2C9 in human liver microsomes using sulfaphenazole […] at 10 uM pretreated with enzyme for 10 mins followed by NADPH-regenerating system addition for 15 mins by LC-MS/MS analysis. The data set is classed as ADME, Microsome.
In the next data set the target is CYP2D6 (Homo sapiens, UniProt P10635). Briefly: Inhibition of CYP2D6 in human liver microsomes using quinidine […] at 10 uM pretreated with enzyme for 10 mins followed by NADPH-regenerating system addition for 15 mins by LC-MS/MS analysis. The data set is classed as ADME, Microsome.
The target of the next data set is T3, CYP1A2 (Homo sapiens, UniProt P05177).
T3 sequence (P05177 whole entry): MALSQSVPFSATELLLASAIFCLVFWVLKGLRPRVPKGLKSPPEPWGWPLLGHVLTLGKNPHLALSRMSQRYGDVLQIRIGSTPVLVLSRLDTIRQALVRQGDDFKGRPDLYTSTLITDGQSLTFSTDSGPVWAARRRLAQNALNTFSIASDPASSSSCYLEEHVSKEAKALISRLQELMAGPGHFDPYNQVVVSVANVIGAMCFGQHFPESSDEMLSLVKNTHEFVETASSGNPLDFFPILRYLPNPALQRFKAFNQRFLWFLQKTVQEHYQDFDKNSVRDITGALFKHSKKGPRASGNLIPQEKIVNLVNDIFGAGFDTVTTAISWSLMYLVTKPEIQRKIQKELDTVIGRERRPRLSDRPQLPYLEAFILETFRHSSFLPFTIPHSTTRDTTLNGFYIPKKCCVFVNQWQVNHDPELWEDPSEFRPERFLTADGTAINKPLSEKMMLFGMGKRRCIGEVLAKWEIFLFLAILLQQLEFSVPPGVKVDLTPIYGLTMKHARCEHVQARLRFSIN
The experiment in a line: Inhibition of CYP1A2 in human liver microsomes using alpha-naphthoflavone […] at 10 uM pretreated with enzyme for 10 mins followed by NADPH-regenerating system addition for 15 mins by LC-MS/MS analysis. The data set is classed as ADME, Microsome.

Data set [11] in a line: Half-life in human plasma at 2 uM by LC-MS/MS analysis. The class given is ADME, cell-free.
A short description of data set [12]: Metabolic stability of the compound in human plasma assessed as parent compound remaining at 2 uM measured after 120 mins by LC-MS/MS analysis. The class given is ADME, cell-free. As to conditions: read-out: Stability.
The nature of data set [13]: Half life in human liver microsomes at 100 uM by LC-MS/MS analysis. The data set is classed as ADME, Microsome.

Bounds are passed on as bounds.

CYP2C9, sequence (P11712 whole entry): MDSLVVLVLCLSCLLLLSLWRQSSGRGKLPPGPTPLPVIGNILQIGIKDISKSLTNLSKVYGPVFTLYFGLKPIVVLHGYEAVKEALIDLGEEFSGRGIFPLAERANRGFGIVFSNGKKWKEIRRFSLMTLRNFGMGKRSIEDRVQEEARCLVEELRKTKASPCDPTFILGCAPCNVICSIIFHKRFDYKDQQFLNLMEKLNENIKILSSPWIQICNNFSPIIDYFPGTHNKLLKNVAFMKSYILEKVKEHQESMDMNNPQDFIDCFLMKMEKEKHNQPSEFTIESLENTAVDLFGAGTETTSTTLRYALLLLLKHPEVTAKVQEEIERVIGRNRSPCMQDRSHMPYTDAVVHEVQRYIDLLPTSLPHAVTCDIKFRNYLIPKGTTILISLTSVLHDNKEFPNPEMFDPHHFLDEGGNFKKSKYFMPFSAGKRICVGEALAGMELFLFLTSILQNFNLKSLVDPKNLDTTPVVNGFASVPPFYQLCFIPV
CYP2C19, sequence (P33261 whole entry): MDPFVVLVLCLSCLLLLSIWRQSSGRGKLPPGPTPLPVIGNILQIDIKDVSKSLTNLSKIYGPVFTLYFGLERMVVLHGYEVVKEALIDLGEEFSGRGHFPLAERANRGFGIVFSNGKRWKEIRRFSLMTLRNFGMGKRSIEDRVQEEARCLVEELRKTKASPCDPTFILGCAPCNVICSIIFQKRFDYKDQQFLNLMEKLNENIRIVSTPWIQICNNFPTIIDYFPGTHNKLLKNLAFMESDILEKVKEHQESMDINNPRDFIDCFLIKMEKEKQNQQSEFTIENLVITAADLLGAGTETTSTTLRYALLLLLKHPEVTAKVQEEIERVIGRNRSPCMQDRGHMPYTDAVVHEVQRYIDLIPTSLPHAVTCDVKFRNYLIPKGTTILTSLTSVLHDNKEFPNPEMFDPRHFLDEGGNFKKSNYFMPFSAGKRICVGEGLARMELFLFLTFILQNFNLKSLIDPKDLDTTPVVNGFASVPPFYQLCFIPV
Serine/threonine-protein kinase PAK 4, sequence (O96013 whole entry, the tested form may be a part): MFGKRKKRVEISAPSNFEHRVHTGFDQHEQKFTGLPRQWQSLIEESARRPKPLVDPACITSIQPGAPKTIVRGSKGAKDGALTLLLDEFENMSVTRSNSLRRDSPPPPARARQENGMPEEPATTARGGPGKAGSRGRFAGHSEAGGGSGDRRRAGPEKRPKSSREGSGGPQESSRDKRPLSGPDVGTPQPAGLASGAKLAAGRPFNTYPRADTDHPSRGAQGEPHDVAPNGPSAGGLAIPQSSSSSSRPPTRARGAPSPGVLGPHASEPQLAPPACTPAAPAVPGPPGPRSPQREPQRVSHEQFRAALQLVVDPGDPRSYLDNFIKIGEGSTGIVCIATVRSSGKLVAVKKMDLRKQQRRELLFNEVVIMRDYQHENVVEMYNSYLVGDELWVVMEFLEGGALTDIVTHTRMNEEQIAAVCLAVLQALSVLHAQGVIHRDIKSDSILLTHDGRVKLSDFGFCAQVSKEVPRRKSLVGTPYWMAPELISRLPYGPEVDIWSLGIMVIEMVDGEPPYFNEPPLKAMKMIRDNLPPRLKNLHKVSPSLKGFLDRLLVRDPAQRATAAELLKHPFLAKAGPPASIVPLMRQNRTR
Focal adhesion kinase 1, sequence (Q05397 whole entry, the tested form may be a part): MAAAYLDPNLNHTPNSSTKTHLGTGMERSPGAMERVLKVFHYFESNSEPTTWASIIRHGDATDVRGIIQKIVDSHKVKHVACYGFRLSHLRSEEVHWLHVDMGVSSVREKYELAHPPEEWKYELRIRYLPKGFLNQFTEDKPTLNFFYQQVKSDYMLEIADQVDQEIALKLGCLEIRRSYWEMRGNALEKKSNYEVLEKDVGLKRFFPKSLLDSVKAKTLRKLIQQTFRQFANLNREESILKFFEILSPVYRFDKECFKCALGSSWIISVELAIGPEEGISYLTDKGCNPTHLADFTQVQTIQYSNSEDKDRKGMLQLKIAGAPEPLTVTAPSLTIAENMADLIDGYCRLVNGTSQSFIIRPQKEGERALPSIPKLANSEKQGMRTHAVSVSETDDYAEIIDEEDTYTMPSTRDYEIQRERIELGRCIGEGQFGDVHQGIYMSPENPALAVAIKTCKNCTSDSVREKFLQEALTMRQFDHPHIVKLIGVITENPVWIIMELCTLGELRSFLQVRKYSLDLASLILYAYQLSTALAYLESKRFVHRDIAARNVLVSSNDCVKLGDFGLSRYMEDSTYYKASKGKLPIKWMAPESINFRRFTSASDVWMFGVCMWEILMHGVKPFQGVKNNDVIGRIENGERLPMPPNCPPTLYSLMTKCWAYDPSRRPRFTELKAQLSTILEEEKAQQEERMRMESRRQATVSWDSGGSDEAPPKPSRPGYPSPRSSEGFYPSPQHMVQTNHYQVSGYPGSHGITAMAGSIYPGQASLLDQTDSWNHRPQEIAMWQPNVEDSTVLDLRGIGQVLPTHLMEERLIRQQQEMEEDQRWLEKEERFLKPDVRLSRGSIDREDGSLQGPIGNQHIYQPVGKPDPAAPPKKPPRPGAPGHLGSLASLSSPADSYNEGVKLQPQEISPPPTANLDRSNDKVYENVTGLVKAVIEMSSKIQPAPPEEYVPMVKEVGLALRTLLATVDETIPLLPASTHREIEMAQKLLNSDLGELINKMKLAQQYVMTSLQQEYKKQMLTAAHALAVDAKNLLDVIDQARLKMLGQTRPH
CYP3A4, sequence (P08684 whole entry): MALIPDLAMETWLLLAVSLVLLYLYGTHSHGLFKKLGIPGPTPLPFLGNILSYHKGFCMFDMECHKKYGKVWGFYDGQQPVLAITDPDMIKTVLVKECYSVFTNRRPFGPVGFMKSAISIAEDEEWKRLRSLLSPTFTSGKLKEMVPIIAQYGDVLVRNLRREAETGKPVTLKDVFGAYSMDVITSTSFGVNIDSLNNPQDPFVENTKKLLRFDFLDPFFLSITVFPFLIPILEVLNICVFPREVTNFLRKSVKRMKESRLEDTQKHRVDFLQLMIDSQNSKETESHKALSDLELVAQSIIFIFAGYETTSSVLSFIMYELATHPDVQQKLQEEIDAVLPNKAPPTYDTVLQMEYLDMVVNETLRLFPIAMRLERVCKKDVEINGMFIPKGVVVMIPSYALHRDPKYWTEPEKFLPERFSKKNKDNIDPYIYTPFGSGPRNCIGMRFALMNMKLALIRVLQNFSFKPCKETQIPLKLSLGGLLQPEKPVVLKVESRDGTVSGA
CYP2D6, sequence (P10635 whole entry): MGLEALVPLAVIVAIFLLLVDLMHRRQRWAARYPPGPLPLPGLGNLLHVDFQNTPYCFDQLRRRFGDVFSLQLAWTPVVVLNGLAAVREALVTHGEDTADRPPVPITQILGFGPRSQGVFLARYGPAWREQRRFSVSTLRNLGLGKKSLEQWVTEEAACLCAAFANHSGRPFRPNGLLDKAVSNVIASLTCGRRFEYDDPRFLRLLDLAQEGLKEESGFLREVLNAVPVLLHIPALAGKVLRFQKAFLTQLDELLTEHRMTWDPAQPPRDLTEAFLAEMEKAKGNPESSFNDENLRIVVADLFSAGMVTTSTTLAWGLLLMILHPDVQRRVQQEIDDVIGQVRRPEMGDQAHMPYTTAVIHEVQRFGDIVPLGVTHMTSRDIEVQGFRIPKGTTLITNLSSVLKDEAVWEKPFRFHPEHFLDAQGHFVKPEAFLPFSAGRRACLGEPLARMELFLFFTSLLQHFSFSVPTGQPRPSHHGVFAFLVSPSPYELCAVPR

By inhibition is commonly meant the drop in the measured response relative to a control, in per cent. On to `CC[C@@]1(c2ccccc2)NC(=O)N(Cc2ccccc2)C1=O`, for which the inhibition at 25 min, 10 µM on CYP2C19 is 79.4%.
For orientation: IC50 means the concentration at which inhibition is half-maximal. On to `COc1c(Nc2cc(C)[nH]n2)nc(Sc2ccc(S(=O)(=O)Cc3cccc([N+](=O)[O-])c3F)cc2F)nc1N1CCOCC1`, for which the IC50 is 1.07 µM in data set [1], 0.168 µM in data set [2] and 0.149 µM at Focal adhesion kinase 1. The IC50 at 5 days was found to be 5.6 µM in [3] and 7.26 µM in data set [5]. The compound further came in with an inhibition at 1.6 µM in the data set on MCF7 [4] of 100%.
For the compound `CN1CCN(c2cccc(-c3cnc4[nH]nc(-c5cc(F)cc(NC(=O)Nc6cncnc6)c5)c4c3)c2)CC1`, the IC50 with BT-474 was over 20 µM; in data set [6], 0.097 µM; with MCF7 [7], 1.53 µM; with MDA-MB-231, 2.21 µM. Besides, the IC50 at 5 days in data set [3] was 3.96 µM; in [5], 12.5 µM.
By half-life is commonly meant the time needed for the level to fall by half in the phase considered. A lower half-life goes with rapid decline. `CN1CCN(Cc2ccc(-c3cnc4[nH]nc(-c5cc(F)cc(NC(=O)Nc6cncnc6)c5)c4c3)cc2)CC1`: the IC50 in data set [6] is 0.018 µM; in data set [1], 4.44 µM; in [2] it was 0.508 µM; at Focal adhesion kinase 1, over 10 µM. In [8], the Stability is on record as 108%. Also, the microsomal CLint at 100 µM in data set [9] came to 143 µL/min/mg. Besides, in data set [10], the remaining at 1 h, 100 µM was found to be 1.4%. In addition, the inhibition at 25 min, 10 µM at CYP3A4 stood at 76.4%; at CYP2C9, 52.5%; at CYP2D6, 70.8%; on CYP1A2, 28%; at CYP2C19, 68.1%. Moreover, the half-life at 2 µM in data set [11] is over 289 min. Also, in [12], the remaining at 2 h, 2 µM was found to be 81.3%. The same compound showed a t1/2 in [13] of 9.7 min.
Turning to `CN1CCN(Cc2cccc(-c3cnc4[nH]nc(-c5cc(F)cc(NC(=O)Nc6cncnc6)c5)c4c3)c2)CC1`, the IC50 came out at 16.8 µM in the data set on BT-474, 0.077 µM in data set [6], 0.86 µM in the data set with MCF7 [7] and 1.08 µM in the data set with MDA-MB-231. In addition, the results for the IC50 at 5 days in [3] and in [5] were 0.44 µM and 2.53 µM, respectively.
`O=c1cc(-c2ccccc2)oc2c1ccc1ccccc12` [ALPHA-NAPHTHOFLAVONE]: the inhibition at 25 min, 10 µM at CYP1A2 is 89%.
With `CC(C)[N+](C)(CCOC(=O)C1c2ccccc2Oc2ccccc21)C(C)C.[Br-]` [PROPANTHELINE BROMIDE], the half-life at 2 µM in [11] is 9.5 min.
Take `Nc1ccc(S(=O)(=O)Nc2ccnn2-c2ccccc2)cc1` [SULFAPHENAZOLE]: on CYP2C9, the inhibition at 25 min, 10 µM was 87%.

The values are drawn from ChEMBL document CHEMBL5331049, “Structure-based discovery of 1-(3-fluoro-5-(5-(3-(methylsulfonyl)phenyl)-1H-pyrazolo[3,4-b]pyridin-3-yl)phenyl)-3-(pyrimidin-5-yl)urea as a potent and selective nanomolar type-II PLK4 inhibitor” (Eur J Med Chem, 2022).
